Source: PubChem BioAssay AID256 (DTP/NCI, 2004)
Inconclusive results and toxic doses are left out. How the source made its calls: active means survival T/C of 150% or more; inactive means T/C below 125% in these data.

Tested on: CD2F1 mice, L1210 leukemia ip, survival T/C
Test: NCI In Vivo Anticancer Drug Screen. Data for tumor model L1210 Leukemia (intraperitoneal) in CD2F1 (CDF1) mice
Details: higher = longer survival
Summary of the method: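 Vehicle-treated tumor-bearing mice served as controls (C) for compound-treated mice (T). Reported figure is T divided by C.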

[1] = endpoint: mean survival time, dose: 100.0 mg/kg/injection, schedule: Q01DX001 (ip), vehicle: saline
[2] = endpoint: mean survival time, dose: 200.0 mg/kg/injection, schedule: Q01DX001 (ip), vehicle: saline
[3] = endpoint: mean survival time, dose: 400.0 mg/kg/injection, schedule: Q01DX001 (ip), vehicle: saline
[4] = endpoint: mean survival time, dose: 100.0 mg/kg/injection, schedule: Q04DX003 (ip), vehicle: saline with Tween-80
[5] = endpoint: mean survival time, dose: 200.0 mg/kg/injection, schedule: Q04DX003 (ip), vehicle: saline with Tween-80
[6] = endpoint: mean survival time, dose: 400.0 mg/kg/injection, schedule: Q04DX003 (ip), vehicle: saline with Tween-80
[7] = endpoint: mean survival time, dose: 100.0 mg/kg/injection, schedule: Q01DX001 (ip), vehicle: saline with Tween-80
[8] = endpoint: mean survival time, dose: 100.0 mg/kg/injection, schedule: Q04DX002 (ip), vehicle: saline with Tween-80
[9] = endpoint: mean survival time, dose: 200.0 mg/kg/injection, schedule: Q01DX001 (ip), vehicle: saline with Tween-80
[10] = endpoint: mean survival time, dose: 200.0 mg/kg/injection, schedule: Q04DX002 (ip), vehicle: saline with Tween-80
[11] = endpoint: mean survival time, dose: 400.0 mg/kg/injection, schedule: Q04DX002 (ip), vehicle: saline with Tween-80
[12] = endpoint: mean survival time, dose: 50.0 mg/kg/injection, schedule: Q01DX001 (ip), vehicle: saline with Tween-80
[13] = endpoint: mean survival time, dose: 200.0 mg/kg/injection, schedule: Q01DX005 (ip), vehicle: distilled water + Tween-80

Measured: T/C

COc1ccc(CC#N)cc1OC
inactive: endpoint: mean survival time, dose: 3.75 mg/kg/injection, schedule: Q01DX009 (ip), vehicle: saline with Tween-80 95 % of control | endpoint: mean survival time, dose: 3.75 mg/kg/injection, schedule: Q04DX003 (ip), vehicle: saline with Tween-80 107 % of control | endpoint: mean survival time, dose: 7.5 mg/kg/injection, schedule: Q01DX009 (ip), vehicle: saline with Tween-80 95 % of control | endpoint: mean survival time, dose: 7.5 mg/kg/injection, schedule: Q04DX003 (ip), vehicle: saline with Tween-80 103 % of control | endpoint: mean survival time, dose: 15.0 mg/kg/injection, schedule: Q01DX009 (ip), vehicle: saline with Tween-80 95 % of control | endpoint: mean survival time, dose: 15.0 mg/kg/injection, schedule: Q04DX003 (ip), vehicle: saline with Tween-80 103 % of control

CC12CCCC(CCCO)(C1)NC(=O)C2 (stereo unspecified)
inactive: [1] 101 % of control | [2] 101 % of control | [3] 101 % of control

CCOC(=O)Nc1ccc(C(=O)O)c(O)c1
inactive: [4] 96 % of control | [5] 96 % of control | [6] 100 % of control

O=C(c1ccccc1)c1ccc2cc(O)ccc2c1
inactive: [7] 102 % of control | [8] 94 % of control | [9] 92 % of control | [10] 90 % of control | endpoint: mean survival time, dose: 400.0 mg/kg/injection, schedule: Q01DX001 (ip), vehicle: saline with Tween-80 96 % of control | [11] 86 % of control

COC(=O)C1CSCC1=O (stereo unspecified)
inactive: [12] 97 % of control | [7] 97 % of control | [9] 103 % of control

NC(=O)Nc1ccccc1
inactive: endpoint: mean survival time, dose: 100.0 mg/kg/injection, schedule: Q01DX009 (ip), vehicle: saline 98 % of control | endpoint: mean survival time, dose: 200.0 mg/kg/injection, schedule: Q01DX009 (ip), vehicle: saline 98 % of control | endpoint: mean survival time, dose: 400.0 mg/kg/injection, schedule: Q01DX009 (ip), vehicle: saline 101 % of control

CC(=O)NC1C(OC(C)=O)OC(COC(C)=O)C(OC(C)=O)C1OC(C)=O (stereo unspecified)
inactive: [12] 101 % of control | [7] 95 % of control | [9] 98 % of control

CC(=O)OCC1OC(Oc2c([N+](=O)[O-])cc([N+](=O)[O-])c3ccccc23)C(OC(C)=O)C(OC(C)=O)C1OC(C)=O (stereo unspecified)
inactive: [8] 96 % of control | [10] 93 % of control | [11] 104 % of control

O=c1nc(N2CCOCC2)ccn1C1OC(CO)C(O)C1O (stereo unspecified)
inactive: endpoint: mean survival time, dose: 100.0 mg/kg/injection, schedule: Q01DX005 (ip), vehicle: water 104 % of control | endpoint: mean survival time, dose: 200.0 mg/kg/injection, schedule: Q01DX005 (ip), vehicle: water 101 % of control | endpoint: mean survival time, dose: 400.0 mg/kg/injection, schedule: Q01DX005 (ip), vehicle: water 107 % of control

Nc1ncnc2c1ncn2C1OC(COP(N)(N)=O)C(O)C1O (stereo unspecified)
inactive: endpoint: mean survival time, dose: 12.5 mg/kg/injection, schedule: Q01DX005 (ip), vehicle: distilled water + Tween-80 105 % of control | endpoint: mean survival time, dose: 25.0 mg/kg/injection, schedule: Q01DX005 (ip), vehicle: distilled water + Tween-80 98 % of control | endpoint: mean survival time, dose: 50.0 mg/kg/injection, schedule: Q01DX005 (ip), vehicle: distilled water + Tween-80 96 % of control | endpoint: mean survival time, dose: 100.0 mg/kg/injection, schedule: Q01DX005 (ip), vehicle: distilled water + Tween-80 102 % of control | [13] 96 % of control

O=C(O)c1ccccn1
inactive: endpoint: mean survival time, dose: 50.0 mg/kg/injection, schedule: Q04HX027 (ip), vehicle: saline 102 % of control | endpoint: mean survival time, dose: 100.0 mg/kg/injection, schedule: Q04HX027 (ip), vehicle: saline 93 % of control

CCS/C(SC)=C(/c1ccccc1)[P+](c1ccccc1)(c1ccccc1)c1ccccc1
inactive: endpoint: median survival time, dose: 1.5 mg/kg/injection, schedule: Q01DX009 (ip), vehicle: Klucel (hydroxypropylcellulose) (HPC) 111 % of control | endpoint: median survival time, dose: 3.0 mg/kg/injection, schedule: Q01DX009 (ip), vehicle: Klucel (hydroxypropylcellulose) (HPC) 114 % of control

O=C1C(=O)c2ccccc2C(O)=C1[N+](=O)[O-]
inactive: endpoint: mean survival time, dose: 100.0 mg/kg/injection, schedule: Q01DX009 (ip), vehicle: saline with Tween-80 96 % of control | [4] 100 % of control | [5] 103 % of control | [6] 112 % of control

O=C(O)c1cc(-c2ccc(Cl)cc2)nc2c(Cl)cc(Cl)cc12
inactive: [1] 101 % of control | [2] 97 % of control | [3] 100 % of control

Cn1c(=O)c2c(ncn2C(C(N)=O)C(N)=O)n(C)c1=O
inactive: [13] 106 % of control | endpoint: mean survival time, dose: 400.0 mg/kg/injection, schedule: Q01DX005 (ip), vehicle: distilled water + Tween-80 100 % of control
